According to paper PMC5897336, “Phosphatase activity tunes two-component system sensor detection threshold” (Nature Communications, 2018):

System: ThsS
Conditions: read-out: K1/2; whole E. coli cells, M9 glycerol, 37 °C, agonist, added as Na2S2O3, 200 μM IPTG, 20 ng/mL aTc; wild type taken as the upper end of the printed range

EC50: 192 µM
Structure (SMILES): O=S(=O)(O)S [thiosulfate]
